The record followed here is patent publication US12441706B2, “Protein degradation agent compound preparation method and application” (SHANGHAI JEMINCARE PHARMACEUTICALS CO., LTD., priority 2019, dated 2025).

Read-outs that look alike come from different tables or passages of the source.

One series concerns LNcap FGC cells. Kind of series: Inhibition of proliferation of LNcap FGC cells (Cell Titer Glo, 6 days). Format: cell-based. The conditions noted are these: Homo sapiens, 144 h. As to the method:
Tumor cell line LNcap FGC (ATCC catalog number CRL-1740) was cultured in RPMI 1640 (Gibco catalog number 11875-093) and DMEM (Gibco catalog number. 11965-092) medium containing 10% FBS (Gibco catalog number 10099-141C), respectively.
(§1) LNcap FGC cells were inoculated in a 384-well plate (Perkin Elmer catalog number 6007460) at a cell density of 400 cells/well in a volume of 20 μL/well and incubated overnight in a carbon dioxide incubator (Thermo). The prepared compound solutions of different concentrations were added in a volume of 5 μL/well. The corresponding vehicle control was set at the same time. After being cultured in the incubator for 6 days, the cell plate and the contents were equilibrated to room temperature, and 25 μL of Cell Titer Glor (Promega catalog number G7573) was added to each well, shook and mixed well, incubated in dark for 10-30 minutes, and the signal values were detected with Envision microplate reader (PerkinElmer).
The percentage inhibition rate of compound-treated wells was calculated from the vehicle control wells on the plate, and the percentage inhibition rate data corresponding to different concentrations were fitted by GraphPad prism, and the IC50 values were calculated by 4-parameter nonlinear logic formula.

The next series concerns the target T1, androgen receptor (Homo sapiens, UniProt P10275, T878A).
T1 construct: endogenous in cells; host or cells: LNCaP cells
T1 sequence (P10275 1-920 T878A): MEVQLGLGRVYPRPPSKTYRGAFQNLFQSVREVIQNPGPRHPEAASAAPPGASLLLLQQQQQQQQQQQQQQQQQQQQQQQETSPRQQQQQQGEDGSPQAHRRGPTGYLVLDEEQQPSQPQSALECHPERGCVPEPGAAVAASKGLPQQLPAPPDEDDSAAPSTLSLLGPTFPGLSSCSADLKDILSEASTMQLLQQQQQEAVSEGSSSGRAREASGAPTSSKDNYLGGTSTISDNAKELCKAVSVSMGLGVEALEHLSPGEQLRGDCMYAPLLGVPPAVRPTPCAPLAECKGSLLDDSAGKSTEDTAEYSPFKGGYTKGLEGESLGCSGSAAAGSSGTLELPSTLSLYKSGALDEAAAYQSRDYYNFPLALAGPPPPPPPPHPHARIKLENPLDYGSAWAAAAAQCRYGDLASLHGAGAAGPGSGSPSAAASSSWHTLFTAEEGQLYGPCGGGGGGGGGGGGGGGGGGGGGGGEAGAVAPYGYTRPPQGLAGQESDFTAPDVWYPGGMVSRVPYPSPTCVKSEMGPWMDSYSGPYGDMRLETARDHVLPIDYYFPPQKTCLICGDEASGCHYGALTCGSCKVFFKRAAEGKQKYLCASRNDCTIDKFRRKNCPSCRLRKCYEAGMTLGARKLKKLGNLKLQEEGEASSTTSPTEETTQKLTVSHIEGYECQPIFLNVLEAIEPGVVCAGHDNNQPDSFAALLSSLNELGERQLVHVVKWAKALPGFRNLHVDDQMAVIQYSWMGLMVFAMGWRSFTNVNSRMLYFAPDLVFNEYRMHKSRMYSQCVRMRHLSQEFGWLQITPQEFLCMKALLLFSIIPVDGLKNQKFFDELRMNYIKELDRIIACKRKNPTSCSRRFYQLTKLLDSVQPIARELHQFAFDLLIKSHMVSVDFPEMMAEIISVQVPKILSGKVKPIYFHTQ
As to the kind of experiment: In-Cell-Western determination of androgen receptor degradation in LnCaP cells. Format: cell-based. The note with it: for DC50: concentration for half of the maximal degradation of AR in LnCaP cells. As to the method:
The determination evaluated the properties of the compounds in Lncap cells. Intracellular androgen receptor was determined by In-Cell-Western according to the determination steps described below.
In poly-D-Lysin pretreated 96-well cell culture plate (Corning 3599), LNcap cells were divided into 100 μL/well volume, and inoculated with 30,000 cells/well in LNcap cell assay medium [DMEM containing phenol red (Gibco catalog number: 11995065); fetal bovine serum FBS (Gibco catalog number: 10099141C)]. Cells were cultured for at least two days.
1. First treated cells with compound. Compounds were gradient diluted with DMSO and cell culture medium, so that DMSO contained in cell culture plates was diluted to 0.5% —polypropylene plates were used according to the following protocol: (1)(i) 200× stock plate in DMSO was prepared; (ii) 10 mM stock solution was diluted 1:4 with DMSO (10 μL stock solution+40 μL DMSO)=2000 μM, then entered into row 2; (iii) 1:4 (10 μL protac+40 μL DMSO) gradient dilution was performed from row 2 to row 9, and row 1 was reserved for […] reference compound and row 10 for DMSO. (iv) A total of 8 concentrations (final concentrations on the 200× plate were 2000 μM, 400 μM and 80 μM, etc.). (2) (i) 3× stock solution was prepared in the medium. (ii) 3 μL of 200× stock solution was transferred to 197 µL of culture medium (using 12-channel pipette, from line 1 to line 10), i.e. 3× stock solution plate. (iii) The stock solution plate was mixed evenly. (3) (i) The culture medium of […] cells was replaced with fresh culture medium, 100 μL volume culture medium. (ii) The well-mixed 3× stock solution was transferred to the cell culture plate (using a 12-channel pipette, and 50 μL of stock solution was transferred from line 1 to line 10). (iii) Cells were cultured for 24 hours.
2. The expression level of intracellular androgen receptor after compound treatment was […] and determined according to the following method.
(1)(i) Equal volume of 8% paraformaldehyde was added to the cell culture plate for cell fixation. The fixing solution in the cell plate was discarded and washed three times with PBS. (ii) Triton solution (1:1000 dilution of the stock solution) was prepared. The solution in the cell plate was discarded, and 200 μL of Triton diluent was added into each well. (iii) 2×blocking solution (1:4 dilution of 10×blocking stock solution) was prepared. The solution in the cell plate was discarded, and 100 μL of 2×blocking solution was added into each well. (iv) Primary antibody solution (Androgen receptor Rabbbit mAb, Cell Signaling Technology catalog number: 5153; 1:1000 dilution) was prepared. The solution in the cell plate was discarded, 100 μL volume of primary antibody diluent was added to each well, and incubated at 4° C. overnight. (v) The primary antibody solution was discarded and the cell plate was washed with 1×Wash buffer. (vi) Secondary antibody solution (GOAT Antirabbit IgG (H+L), HRP, Thermo catalog number: 31460; 1:5000 dilution) was prepared, and 100 μL volume of secondary antibody dilution was added to each well for incubation. (vii) The secondary antibody solution in the cell plate was discarded and the cell plate was washed with 1×Wash buffer. (viii) TMB chromogenic solution (BD catalog number: 550534) was prepared, and 100 μL chromogenic solution was added into each well. (ix) 50 μL volume of stop solution (BD catalog number: 550534) was added to each well. (x) The absorption values at OD 450 nm and 570 nm were read though EnVision. (2) (i) Normalized analysis was performed on the number of cells in each well. The solution in the cell plate was discarded, and washed with wash buffer for three times. (ii) Janus dilution (1:3 dilution) was prepared. (iii) 50 μL volume diluent was added to each well for incubation. (iv) The solution in the plate was discarded and washed with deionized water. […]

The next series concerns VCap cells. Kind of series: Inhibition of proliferation of VCap cells (Cell Titer Glo, 6 days). The series is classed as cell-based. The note with it: Homo sapiens, 144 h. As to the method:
Tumor cell line VCap FGC (ATCC catalog number CRL-2876) was cultured in DMEM (Gibco catalog number 11965-092) medium containing 10% FBS (Gibco catalog number 10099-141C), respectively. During the determination, Vcap cells were replaced with DMEM medium containing 5% FBS and 0.1 nM R1881 (Sigma catalog number R0908).
as §1, with “Vcap” for “LNcap”, “1200” for “400”, “shake” for “shook”, “mix” for “mixed”, “though” for “with”
The percentage inhibition rate of compound-treated wells was calculated from vehicle control wells on the plate, and the percentage inhibition rate data corresponding to different concentrations were fitted by GraphPad prism, and the IC50 values were calculated by 4-parameter nonlinear logic formula.

Series [1] in a line: In vivo pharmacokinetics in mice, intravenous injection and oral administration. The arrangement: species or system mouse. The conditions noted are these: male CD1 mice. As to the method:
In this experimental example, in vivo pharmacokinetics in mice were evaluated by intravenous injection and oral administration.
Experimental methods and conditions: Male CD1 mice, aged 6-8 weeks, all animals were free access to food and water, and were given a single dose of the compound to be tested at 1 mg/Kg by intravenous injection (solvent 5% DMSO/15% Solutol/80% Saline), at 5 min, 15 min, 30 min, 1 hr, 2 hr, 4 hr, 8 hr, 24 hr, 48 h after drug administration, or oral gavage administration of 10 mg/kg (solvent 5% DMSO/10% Solutol/85% Saline), at 15 min, 30 min, 1 hr, 2 hr, 4 hr, 6 h, 8 hr, 24 hr, 48 h after administration, blood was collected from the orbit, no less than 50 μL for each sample, heparin sodium was used for anticoagulation, and then placed on ice after collection, and centrifuged within 1 hour to separate the plasma for testing. The plasma concentration of the drug was detected by liquid tandem mass spectrometry (LC/MS/MS), and the pharmacokinetic parameters were calculated by Phoenix WinNonlin software.

Where [2] appears, read: LnCaP cell proliferation, 6 days, read-out: IC50.
[3] abbreviates: maximum degree of inhibition of LnCaP cell proliferation, 6 days, read-out: Emax.
Where [4] appears, read: mouse, intravenous administration 1 mg/kg, plasma.
[5] abbreviates: mouse, oral administration 10 mg/kg, plasma.

As for `COc1cc(N2C(=O)C(C)(C)c3cc(-c4ccc(N5CC(CN6CCN(c7ccc8c(c7)C(=O)N(C7CCC(=O)NC7=O)C8=O)CC6)C5)cc4)ccc32)ccc1C#N` (centres unmarked) [Compound 2], the IC50 with LNcap FGC cells (setting [2]) was 89.1 nM. Moreover, the Emax in the series on LNcap FGC cells (setting [3]) came to 98%.
`CC1(C)C(=O)N(c2ccc(C#N)c(Cl)c2)c2ccc(-c3ccc(N4CC(CN5CCN(c6ccc7c(c6)CN(C6CCC(=O)NC6=O)C7=O)CC5)C4)cc3)cc21` (centres unmarked) [Compound 4] displayed a maximal degradation (Dmax) on androgen receptor (LNCaP) of 91%. For the same compound, the 50% degradation concentration (DC50) on androgen receptor (24 hours treatment) was 108 nM.
As for `CC1(C)C(=O)N(c2ccc(C#N)c(Cl)c2)c2ccc(-c3ccc(N4CC(F)(CN5CCN(c6ccc7c(c6)C(=O)N(C6CCC(=O)NC6=O)C7=O)CC5)C4)cc3)cc21` (centres unmarked) [Compound 5], the half-inhibitory concentration (IC50) with LNcap FGC cells (setting [2]) worked out at 95.7 nM. The Emax in the series on LNcap FGC cells (setting [3]) stood at 93%.
In the series on VCap cells (VCaP), `CC1(C)C(=O)N(c2ccc(C#N)c(Cl)c2)c2ccc(-c3ncc(N4CC(CN5CCN(c6ccc7c(c6)C(=O)N(C6CCC(=O)NC6=O)C7=O)CC5)C4)cn3)cc21` (centres unmarked) [Compound 6] had an Emax of 94% and an IC50 of 81 nM. Also, the F in series [1] (oral administration 10 mg/kg vs intravenous 1 mg/kg) was found to be 71.3%. For the same compound, in series [1] (setting [4]), the AUC(0-inf) was found to be 9860 ng·h/mL, the clearance was found to be 1.69 mL/min/kg and the half-life is 11.2 h. In series [1] (setting [5]), this compound showed an AUC(0-inf) of 70300 ng·h/mL, a Cmax of 2920 ng/mL and a half-life of 11.2 h. Further, in the series with LNcap FGC cells (LNCaP), the Emax was 99% and the half-maximal inhibitory concentration (IC50) stood at 76.7 nM.
On to `CC1(C)C(=O)N(c2ccc(C#N)c(Cl)c2)c2ccc(-c3ccc(N4CC(CN5CCN(c6cc7c(cc6F)C(=O)N(C6CCC(=O)NC6=O)C7=O)CC5)C4)cc3)cc21` (centres unmarked) [Compound 7], for which the greatest degradation seen (Dmax) at androgen receptor (LNCaP) was 75%. Besides, the 50% degradation concentration (DC50) on androgen receptor (24 hours treatment) worked out at 72.1 nM.
In the case of `CC1(C)C(=O)N(c2ccc(C#N)c(Cl)c2)c2ccc(-c3cnc(N4CC(CN5CCN(c6ccc7c(c6)C(=O)N(C6CCC(=O)NC6=O)C7=O)CC5)C4)cn3)cc21` (centres unmarked) [Compound 10], the IC50 in the series with VCap cells (VCaP cell proliferation, 6 days, 5% FBS and 0.1 nM R1881, read-out: IC50) stood at 50 nM; in the series on LNcap FGC cells (setting [2]), 39.4 nM. In addition, the Emax was 98% in the series on VCap cells (maximum degree of inhibition of VCaP cell proliferation, 6 days, 5% FBS and 0.1 nM R1881, read-out: Emax); 100% with LNcap FGC cells (setting [3]).
On to `CC1(C)C(=O)N(c2cnc(C#N)c(Cl)c2)c2ccc(-c3ccc(N4CC(CN5CCN(c6ccc7c(c6)C(=O)N(C6CCC(=O)NC6=O)C7=O)CC5)C4)cc3)cc21` (centres unmarked) [Compound 11], for which, at androgen receptor (24 hours treatment, read-out: DC50), the 50% degradation concentration (DC50) was 74.7 nM. Besides, the greatest degradation seen (Dmax) on androgen receptor (maximum degradation of AR in LnCaP cells, 24 hours treatment, read-out: Dmax) was 74%.
The compound `CC1(C)C(=O)N(c2ccc(C#N)c(Cl)c2)c2ccc(-c3ccc(-c4cnn(CCN5CCN(c6ccc7c(c6)C(=O)N(C6CCC(=O)NC6=O)C7=O)CC5)c4)cc3)cc21` (centres unmarked) [Compound 12] came in with a Dmax on androgen receptor (LNCaP) of 75%. Besides, the DC50 on androgen receptor (24 hours treatment) is 78.8 nM. Also, in the series on LNcap FGC cells (LNCaP), the Emax was 68% and the midpoint of inhibition, the IC50, lay at 82 nM.
In the case of `CC1(C)C(=O)N(c2ccc(C#N)c(Cl)c2)c2ccc(-c3ccc(-c4cnn(CCCN5CCN(c6ccc7c(c6)C(=O)N(C6CCC(=O)NC6=O)C7=O)CC5)c4)cc3)cc21` (centres unmarked) [Compound 13], the maximal degradation (Dmax) on androgen receptor (LNCaP) turned out to be 100%. Also, half-maximal degradation on androgen receptor (24 hours treatment) (DC50) was put at 73.4 nM.
For the compound `CC1(C)C(=O)N(c2ccc(C#N)c(C(F)(F)F)c2)c2ccc(-c3ccc(N4CC(CN5CCN(c6ccc7c(c6)C(=O)N(C6CCC(=O)NC6=O)C7=O)CC5)C4)nc3F)cc21` (centres unmarked) [Compound 15], in the series on VCap cells (VCaP), the Emax came to 92% and the half-inhibitory concentration (IC50) was determined as 82 nM. In addition, at androgen receptor (LNCaP), the Dmax was found to be 67%. In addition, it took 3.49 nM to reach half-maximal degradation at androgen receptor (24 hours treatment) (DC50).
